Data from US20230017045A1, “PYRIDINE AND PYRIMIDINE CARBOXYLATE HERBICIDES AND METHODS OF USE THEREOF” (Dow AgroSciences LLC, priority 2017, published 2023).
Like-named read-outs stand apart in the source and are kept apart here.

System: test plant species
Assay: Post-emergent herbicidal activity test (greenhouse, foliar spray, visual growth reduction)
Format: in vivo
Details: post-emergence, 336 h, 140 g ai/ha
In short: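 Visual scoring 14 d after treatment (0 = no injury, 100 = complete control) against nontreated and solvent-blank plants gave percent growth reduction. Foliar application used a track sprayer delivering 187 L/ha to seedlings at first or second true leaf stage, grown at 23–29 °C day, ~15 h photoperiod.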

[1] = ALOMY: blackgrass (Alopecurus myosuroides), 14 days after application, read-out: Visual Growth Reduction (%) 14 Days After Application, ALOMY
[2] = AMARE: redroot pigweed (Amaranthus retroflexus), 14 days after application, read-out: Visual Growth Reduction (%) 14 Days After Application, AMARE
[3] = AVEFA: wild oat (Avena fatua), 14 days after application, read-out: Visual Growth Reduction (%) 14 Days After Application, AVEFA
[4] = CHEAL: lambsquarters (Chenopodium album), 14 days after application, read-out: Visual Growth Reduction (%) 14 Days After Application, CHEAL
[5] = CIRAR: canada thistle (Cirsium arvense), 14 days after application, read-out: Visual Growth Reduction (%) 14 Days After Application, CIRAR
[6] = CYPES: yellow nutsedge (Cyperus esculentus), 14 days after application, read-out: Visual Growth Reduction (%) 14 Days After Application, CYPES
[7] = DIGSA: crabgrass (Digitaria sanguinalis), 14 days after application, read-out: Visual Growth Reduction (%) 14 Days After Application, DIGSA
[8] = ECHCG: barnyardgrass (Echinochloa crus-galli), 14 days after application, read-out: Visual Growth Reduction (%) 14 Days After Application, ECHCG
[9] = IPOHE: ivy-leaf morning glory (Ipomoea hederacea), 14 days after application, read-out: Visual Growth Reduction (%) 14 Days After Application, IPOHE
[10] = KCHSC: kochia (Bassia scoparia), 14 days after application, read-out: Visual Growth Reduction (%) 14 Days After Application, KCHSC
[11] = ORYSA: rice (Oryza sativa), 14 days after application, read-out: Visual Growth Reduction (%) 14 Days After Application, ORYSA
[12] = SETFA: giant foxtail (Setaria faberi), 14 days after application, read-out: Visual Growth Reduction (%) 14 Days After Application, SETFA
[13] = SORVU: grain sorghum (Sorghum vulgare), 14 days after application, read-out: Visual Growth Reduction (%) 14 Days After Application, SORVU
[14] = STEME: common chickweed (Stellaria media), 14 days after application, read-out: Visual Growth Reduction (%) 14 Days After Application, STEME
[15] = TRZAS: wheat, spring (Triticum aestivum), 14 days after application, read-out: Visual Growth Reduction (%) 14 Days After Application, TRZAS

Compound	pest or weed control at 140 g/ha [1] [%]	pest or weed control at 140 g/ha [2] [%]	pest or weed control at 140 g/ha [3] [%]	pest or weed control at 140 g/ha [4] [%]	pest or weed control at 140 g/ha [5] [%]	pest or weed control at 140 g/ha [6] [%]	pest or weed control at 140 g/ha [7] [%]	pest or weed control at 140 g/ha [8] [%]	pest or weed control at 140 g/ha [9] [%]	pest or weed control at 140 g/ha [10] [%]	pest or weed control at 140 g/ha [11] [%]	pest or weed control at 140 g/ha [12] [%]	pest or weed control at 140 g/ha [13] [%]	pest or weed control at 140 g/ha [14] [%]	pest or weed control at 140 g/ha [15] [%]	further results
COC(=O)c1nc(-c2c(Cl)cc(C(F)(F)F)cc2Cl)ccc1Cl [F88, Methyl 3-chloro-6-(2,6-dichloro-4-(trifluoromethyl)phenyl)picolinate]	60 to 74	95 to 100	0 to 29	95 to 100	85 to 94	0 to 29	85 to 94	75 to 84	75 to 84	45 to 59	0 to 29	85 to 94	85 to 94	0 to 29	30 to 44	–
COC(=O)c1nc(-c2ccc(SC(F)(F)F)cc2)ccc1Cl [F97, Methyl 3-chloro-6-(4-((trifluoromethyl)thio)phenyl)picolinate]	0 to 29	0 to 29	0 to 29	0 to 29	0 to 29	0 to 29	0 to 29	0 to 29	0 to 29	0 to 29	0 to 29	0 to 29	0 to 29	0 to 29	0 to 29	–
COC(=O)c1nc(-c2ccc(C(F)(F)F)cc2Cl)c(F)cc1F [F373, Methyl 6-(2-chloro-4-(trifluoromethyl)phenyl)-3,5-difluoropicolinate]	–	–	–	–	–	–	–	75 to 84	95 to 100	75 to 84	0 to 29	75 to 84	95 to 100	30 to 44	30 to 44	pest or weed control at 140 g/ha (blackgrass (Alopecurus myosuroides), 14 Days After Application, read-out: Visual Growth Reduction (%) ALOMY): 0 to 29%; pest or weed control at 140 g/ha (canada thistle (Cirsium arvense), 14 Days After Application, read-out: Visual Growth Reduction (%) CIRAR): 95 to 100%; pest or weed control at 140 g/ha (crabgrass (Digitaria sanguinalis), 14 Days After Application, read-out: Visual Growth Reduction (%) DIGSA): 95 to 100%; pest or weed control at 140 g/ha (lambsquarters (Chenopodium album), 14 Days After Application, read-out: Visual Growth Reduction (%) CHEAL): 95 to 100%; pest or weed control at 140 g/ha (redroot pigweed (Amaranthus retroflexus), 14 Days After Application, read-out: Visual Growth Reduction (%) AMARE): 95 to 100%; pest or weed control at 140 g/ha (wild oat (Avena fatua), 14 Days After Application, read-out: Visual Growth Reduction (%) AVEFA): 45 to 59%; pest or weed control at 140 g/ha (yellow nutsedge (Cyperus esculentus), 14 Days After Application, read-out: Visual Growth Reduction (%) CYPES): 0 to 29%
COC(=O)c1nc(-c2ccc(C(F)(F)F)cc2F)ccc1Cl [F12, Methyl 3-chloro-6-(2-fluoro-4-(trifluoromethyl)phenyl)picolinate]	0 to 29	85 to 94	0 to 29	95 to 100	60 to 74	60 to 74	75 to 84	–	–	–	–	–	–	–	–	pest or weed control at 140 g/ha (barnyardgrass (Echinochloa crus-galli), 14 Days After Application, read-out: Visual Growth Reduction (%) ECHCG): 0 to 29%; pest or weed control at 140 g/ha (common chickweed (Stellaria media), 14 Days After Application, read-out: Visual Growth Reduction (%) STEME): 0 to 29%; pest or weed control at 140 g/ha (giant foxtail (Setaria faberi), 14 Days After Application, read-out: Visual Growth Reduction (%) SETFA): 0 to 29%; pest or weed control at 140 g/ha (ivy-leaf morning glory (Ipomoea hederacea), 14 Days After Application, read-out: Visual Growth Reduction (%) IPOHE): 95 to 100%; pest or weed control at 140 g/ha (johnsongrass (Sorghum vulgare), 14 Days After Application, read-out: Visual Growth Reduction (%) SORVU): 75 to 84%; pest or weed control at 140 g/ha (kochia (Bassia scoparia), 14 Days After Application, read-out: Visual Growth Reduction (%) KCHSC): 0 to 29%; pest or weed control at 140 g/ha (rice (Oryza sativa), 14 Days After Application, read-out: Visual Growth Reduction (%) ORYSA): 0 to 29%; pest or weed control at 140 g/ha (wheat, spring (Triticum aestivum), 14 Days After Application, read-out: Visual Growth Reduction (%) TRZAS): 0 to 29%
COC(=O)c1nc(-c2ccc(Oc3ccc(F)cc3)cc2Cl)ccc1Cl [F123, Methyl 3-chloro-6-(2-chloro-4-(4-fluorophe)phenyl) picolinate]	0 to 29	0 to 29	0 to 29	0 to 29	0 to 29	0 to 29	0 to 29	0 to 29	30 to 44	0 to 29	0 to 29	0 to 29	0 to 29	0 to 29	0 to 29	–
